#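 In this assay, cells in 96-well plates receive the compound at five concentrations for 48 hours. Endpoints are linearly interpolated between the surrounding concentrations. GI50 is the concentration that inhibits growth by half.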 Calls of active or inactive are those of the source. Cut-off read from the data, not from the text of the source: active = GI50 up to about 1.1 µM and inactive = higher.
# Experiments:
# Test in all cases: growth of human tumour cells (NCI), 48 h
# [1] = system: SK-MEL-2
# [2] = system: KM12
# [3] = system: UACC-62
# [4] = system: RXF 393
# [5] = system: 786-0
# [6] = system: LOX IMVI
# [7] = system: SF-268
# [8] = system: OVCAR-5
# [9] = system: K562
# [10] = system: BT-549
# [11] = system: NCI-H460
# [12] = system: SNB-19
# [13] = system: CCRF-CEM
# [14] = system: SF-539
# [15] = system: COLO 205
# [16] = system: MCF7
# [17] = system: HOP-92
# [18] = system: SK-OV-3
# [19] = system: OVCAR-8
# [20] = system: TK-10
Compound,GI50 [1],GI50 [2],GI50 [3],GI50 [4],GI50 [5],GI50 [6],GI50 [7],GI50 [8],GI50 [9],GI50 [10],GI50 [11],GI50 [12],GI50 [13],GI50 [14],GI50 [15],GI50 [16],GI50 [17],GI50 [18],GI50 [19],GI50 [20]
CC(=O)Oc1cccc2c(/C=N/NC(N)=S)ncc(C)c12,5.94 µM (inactive),0.895 µM (active),1.17 µM (inactive),4.15 µM (inactive),0.322 µM (active),0.596 µM (active),0.357 µM (active),7.35 µM (inactive),1.31 µM (inactive),1.28 µM (inactive),0.966 µM (active),1.2 µM (inactive),0.422 µM (active),0.207 µM (active),3.4 µM (inactive),0.603 µM (active),3.27 µM (inactive),1.46 µM (inactive),0.463 µM (active),7.64 µM (inactive)
CCCC1=NC(C(F)(F)F)(C(F)(F)F)N=C(N2CCOCC2)O1,> 100 µM (inactive),> 100 µM (inactive),> 100 µM (inactive),> 100 µM (inactive),> 100 µM (inactive),> 100 µM (inactive),> 100 µM (inactive),> 100 µM (inactive),> 100 µM (inactive),> 100 µM (inactive),–,> 100 µM (inactive),> 100 µM (inactive),> 100 µM (inactive),> 100 µM (inactive),> 100 µM (inactive),25.3 µM (inactive),> 100 µM (inactive),> 100 µM (inactive),> 100 µM (inactive)
Cc1cc(S(=O)(=O)Nc2nc(N)nc(N3CCOCC3)n2)c(SCC(=O)O)cc1Cl,> 10 µM (inactive),> 10 µM (inactive),–,> 10 µM (inactive),> 10 µM (inactive),> 10 µM (inactive),> 10 µM (inactive),> 10 µM (inactive),> 10 µM (inactive),> 10 µM (inactive),> 10 µM (inactive),> 10 µM (inactive),> 10 µM (inactive),> 10 µM (inactive),> 10 µM (inactive),> 10 µM (inactive),> 10 µM (inactive),> 10 µM (inactive),> 10 µM (inactive),> 10 µM (inactive)
c1ccc(C(NCC2CCO2)(c2ccccc2)c2ccccc2)cc1 (centres undefined),21.1 µM (inactive),15 µM (inactive),14.7 µM (inactive),18.2 µM (inactive),20 µM (inactive),28.6 µM (inactive),–,15.7 µM (inactive),34.1 µM (inactive),22.3 µM (inactive),16.4 µM (inactive),13.7 µM (inactive),33.3 µM (inactive),17.8 µM (inactive),39.1 µM (inactive),16.8 µM (inactive),13.9 µM (inactive),19.7 µM (inactive),12.6 µM (inactive),13.8 µM (inactive)
CN1CCc2c(sc3ncn(N)c(=N)c23)C1,61.2 µM (inactive),> 100 µM (inactive),> 100 µM (inactive),> 100 µM (inactive),> 100 µM (inactive),> 100 µM (inactive),> 100 µM (inactive),> 100 µM (inactive),> 100 µM (inactive),> 100 µM (inactive),> 100 µM (inactive),> 100 µM (inactive),36.1 µM (inactive),> 100 µM (inactive),–,> 100 µM (inactive),> 100 µM (inactive),> 100 µM (inactive),> 100 µM (inactive),> 100 µM (inactive)
CC(=O)OCc1cc(CCC(=O)NCCNc2c3ccccc3nc3ccccc23)cc(COC(C)=O)c1O[Si](C)(C)C(C)(C)C,8.95 µM (inactive),2.95 µM (inactive),6.9 µM (inactive),3.48 µM (inactive),8.81 µM (inactive),1.95 µM (inactive),–,13.4 µM (inactive),2.65 µM (inactive),13.7 µM (inactive),3.72 µM (inactive),11.1 µM (inactive),3.7 µM (inactive),2.59 µM (inactive),4.35 µM (inactive),2.2 µM (inactive),4.89 µM (inactive),13.9 µM (inactive),13.8 µM (inactive),7.46 µM (inactive)
O=C1C(=CNc2ccc([N+](=O)[O-])cc2)C(=O)N(c2ccccc2)C(=O)N1c1ccccc1,85.7 µM (inactive),36.7 µM (inactive),41.3 µM (inactive),> 100 µM (inactive),> 100 µM (inactive),> 100 µM (inactive),> 100 µM (inactive),> 100 µM (inactive),> 100 µM (inactive),> 100 µM (inactive),> 100 µM (inactive),> 100 µM (inactive),> 100 µM (inactive),–,> 100 µM (inactive),> 100 µM (inactive),> 100 µM (inactive),> 100 µM (inactive),> 100 µM (inactive),25.5 µM (inactive)
